# Test results from US20250042925A1, “Improved Compositions and Methods for Targeting Mitochondria in Cancer Cells” (The Medical College of Wisconsin, Inc., priority 2021, published 2025).
# Columns and labels:
# diabetic patients = conditions: cited from earlier work
# [1] = system: HPNE and HPSC non-transformed cells; experiment: Cell growth (confluence) of normal non-transformed cells; assay type: cell-based, human
# Procedure: To test the off-target effects of the refined MMe analogs on normal non-transformed cells, the growth of HPNE cells (FIGS. 11A, 11D, and 11G), used as a surrogate for normal pancreatic ductal epithelium, or normal stromal HPSC cells (FIGS. 11B, 11E, and 11H) were measured in increasing concentrations of MMe, pCF3-MMe, or mCF3-MMe and compared to the vehicle control.
# (§1) Murine pancreatic cancer cells KPC1242 (David Tuveson, Cold Spring Harbor), human pancreatic cancer cells, Panc-1 (ATCC: CRL-1469), human breast cancer cells MDA-MB-231 (ATCC: CRM-HTB-26), and human pancreatic stellate cells HPSC (Rosa F. Hwang, MD Anderson cancer) were all cultured in DMEM (Gibco ThermoFisher Scientific, Waltham, MA, Cat #11965084) containing 10% v/v fetal bovine serum (Omega Scientific, Inc., Tarzana, CA, Cat #FB-12). Human pancreatic cancer cells AsPC-1 (ATCC: CRL-1682), human ovarian cancer cells OVCAR-8 (NIH: CVCL-1629), and human ovarian cancer cells OVCAR-4 (NIH: CVCL-1627) were all cultured in DMEM (Gibco, Cat #22400089) containing 10% v/v fetal bovine serum (Omega Scientific). Human colon cancer cells HCT-116 (ATCC: CCL-247) were cultured in McCoy's 5A Modified Medium (Gibco, Cat #16600082) containing 10% v/v fetal bovine serum (Omega Scientific). Human pancreatic duct epithelial cells HPNE (ATCC: CRL-4023) were cultured in DMEM and 200 mM L-Glutamine and 7.5% w/v NaCO3 further supplemented with 15% v/v fetal bovine serum, M3-Base A (Incell, San Antonio, TX), 1M D-Glucose (Gibco Cat #J60067.EQE), 100 μg/mL human EGF (Gibco Cat #PHG0313) and 10 mg/mL puromycin (ThermoFisher, Cat #A1113802).
# [2] = system: KPC1242, Panc-1, AsPC-1, HCT-116, MDA-MB-231, OVCAR-4, OVCAR-8 cancer cell lines; experiment: Cell growth (IncuCyte confluence) in cancer cell lines; assay type: cell-based, murine, human; conditions: increasing concentrations 0.1 μM-10 μM, each of the cancer cells
# Excerpt: as §1
# [3] = system: Panc-1 human pancreatic cancer cells; experiment: Cell growth (IncuCyte confluence) in Panc-1 cells
# Excerpt: Values are mean±SD, n=4, each experiment completed in technical quadruplicate.
# To investigate tumor cell selectivity, human pancreatic nestin-expressing cells (HPNE) were used as a surrogate for normal epithelial cells, and human pancreatic stellate cells (HPSC) were studied as a non-transformed stromal cell type. Cells were exposed to escalating concentrations of MMe, pCF3-MMe, mCF3-MMe, and pMeO-MMe (FIGS. 2A-2D) and percent confluency measured as a surrogate for daily proliferation.
# Cells were plated to standard 96-well tissue culture plates at 4,000 cells/well. Mitochondria-targeted compounds were diluted in full serum medium and added to wells. Cell confluence was measured using an IncuCyte S3 every 2 hours at 10× magnification. […] Image analyses were conducted using the IncuCyte S3 imaging software system.
smiles,measurement,setting,value
CN(C)C(=N)N=C(N)N [Metformin],tolerated daily doses,diabetic patients,2-3 grams
"N=C(N)NC(=N)NCCCCCCCCCC[P+](c1cccc(C(F)(F)F)c1)(c1cccc(C(F)(F)F)c1)c1cccc(C(F)(F)F)c1.[Br-] [mCF3-MMe, (10-(3-carbamimidoylguanidino)decyl)tris(3-(trifluoromethyl)phenyl)phosphonium bromide]",reduction in toxicity to normal cells compared to MMe,[1],~10 fold
same,sensitivity of normal non-transformed cells compared to cancer cells,"[1]; HPNE, HPSC versus cancer cells",more than a log less sensitive
same,cell confluency,[2],decreased in a concentration-dependent manner
COc1ccc([P+](CCCCCCCCCCNC(=N)NC(=N)N)(c2ccc(OC)cc2)c2ccc(OC)cc2)cc1 [pMeO-MMe],confluence,[3]; human pancreatic cancer cells,concentration-dependent decrease in confluence
same,efficacy in pancreas cancer cells,[3]; in contrast to the fluorinated compound,significantly lower efficacy
